Measurements as given in US5612360A, “Angiotensin II antagonists” (Eli Lilly and Company, priority 1993, dated 1997).

target: angiotensin II receptor; test: Adrenal Glomerulosa Test System: displacement of I^125-angiotensin II binding to rat adrenal membranes; conditions: I^125-angiotensin II 0.1 nM, room temperature, 90 minutes, KI by Cheng Prusoff equation
Protocol: The compounds of Formula I are potent effective antagonists of angiotensin II. The ability of representative compounds of Formula I to block angiotensin II receptor binding was determined using the adrenal glomerulosa assay. The ability to antagonize angiotensininduced vasoconstriction was evaluated in the rabbit aorta test system.
Binding of I^125 -angiotensin II to adrenal membranes was routinely carried out in 96-well filtration plates. Adrenal membranes were prepared from the capsular portion (glomerulosal layer attached) of rat adrenal glands by differential centrifugation. Briefly, capsules were homogenized in a solution containing sucrose, 250 mM; MgCl2, 1 mM; and tris, 5 mM at pH 7.5 and 4° C. using a polytron at setting 5 for 20 seconds. The homogenate was stirred gently for 15 minutes at 4° C. and then centrifuged 10 minutes, at 1000×g, 4° C. The supernatant was centrifuged 30 minutes, at 30,000×g, 4° C., and the resulting pellet resuspended in 50 mM tris. Membrane preparations were stored in aliquots at -70° C. until used. Binding of I^125 -angiotensin II to adrenal membranes was performed at room temperature for 90 minutes in 96-well plates containing a hydrophilic polyvinylidene fluoride membrane (0.45 μm, Millipore-GV multiscreen). Each 250 μl incubate contained the following (final concentration): tris, 50 mM; NaCl, 120 mM; MgCl2, 5 mM; dithiothrietol 1 mM; bovine serum albumin, 0.05%; I^125 -angiotensin II, 0.1 nM; and adrenal membrane protein, 8-15 μg. Antagonists were added in concentrations from 10 nM to 100 μM. Non-specific binding was measured in the presence of 0.1 μM Sar1, Ile8 angiotensin II. Binding was terminated by vacuum filtration. Receptor-ligand complex trapped on filters was washed 3 times with 300 μl ice-cold wash solution (tris, 50 mM; NaCl, 120 mM; MgCl2, 5 mM; dithiothrietol, 1 mM). Filter discs were dried, punched out and counted in a gamma counter at 52% efficiency. Specific binding represented 96% of total binding (approximately 150 fmol angiotensin II/mg protein). The molar concentration (IC50) of the inhibitor that displaced 50% of the binding of 1125 angiotensin II for each compound was calculated using a 4 parameter logistics model (NonLin, SAS Institute). Data are expressed as KI (μm) calculated using the Cheng Prusoff equation. See Cheng et al. Biochemo Pharmacol. 22: 3099 (1973).

Compound | Ki [nM]
CCCCCCC(C(=O)O)n1ncc2cc(-c3ccccc3-c3nn[nH]n3)ccc21 (stereo not shown) [27 2H] | 5430
CCCCCCC(C(=O)O)n1ccc2cc(-c3ccccc3C(=O)O)ccc21 (stereo not shown) [Example 1, 2[-5-(2-Carboxyphenyl)indol-1-yl]octanoic acid] | 3860
CCCCCCC(C(=O)O)n1ccc2cc(-c3cccc(O)c3C(=O)O)ccc21 (stereo not shown) [Example 2, 2-[5-(2-Carboxy-3-hydroxyphenyl)indol-1-yl]octanoic acid] | 9450
CCCCCCC(C(=O)O)n1cnc2cc(-c3ccccc3-c3nn[nH]n3)ccc21 (stereo not shown) [Example 3, 2-[5-[2-(2H-Tetrazol-5-yl)phenyl]-1H-benzimidazol-1-yl]octanoic acid] | 5600
CCCCCCC(C(=O)O)n1cc(Cc2ccccc2)c2cc(-c3ccccc3-c3nn[nH]n3)ccc21 (stereo not shown) [Example 24, 2-[3-benzyl-5-[2-(2H-tetrazol-5-yl)phenyl]indol-1-yl]octanoic Acid] | 13700
CCCCCCC(C(=O)O)n1cc(Br)c2cc(-c3ccccc3-c3nnn[nH]3)ccc21 (stereo not shown) [Example 26, 2-[3-Bromo-5-[2-[2H-tetrazol-5-yl)phenyl]indo-1-yl]octanoic Acid] | 5720
CCCCC(c1cccc(C(F)(F)F)c1)n1ccc2cc(-c3ccccc3-c3nn[nH]n3)ccc21 (stereo not shown) [Example 28, 5-[2-(2H-tetrazol-5-yl)phenyl]-1-[1-(3-trifluoromethylphenyl)-1-pentyl]indole] | 14300
CCCCC(c1ccc(C(F)(F)F)cc1)n1ccc2cc(-c3ccccc3-c3nn[nH]n3)ccc21 (stereo not shown) [Example 29, 5-[2-(2H-tetrazol-5-yl)phenyl]-1-[1-(4-trifluoromethylphenyl)-1-pentyl]indole] | 19200

Other lines, results leading:

Ki [nM] | Compound
360 | CCCCCCC(C(=O)O)n1c(C)nc2cc(-c3ccccc3-c3nnn[nH]3)ccc21 (stereo not shown) [Example 5]
85 | CCCCCCC(C(=O)O)n1c(C(F)(F)F)nc2cc(-c3ccccc3-c3nn[nH]n3)ccc21 (stereo not shown) [Example 6, 2-[5-[2-(2H-Tetrazol-5-yl)phenyl]-2-trifluoromethyl-1H-benzimidazol-1-yl]octanoic acid]
29 | CCCCCCC(C(=O)N1CCC[C@H]1C(=O)O)n1cnc2cc(-c3ccccc3-c3nn[nH]n3)ccc21 (stereo partly drawn) [Example 9, 1-[1-Oxo-2-[5-[2-(2H-tetrazol-5-yl)phenyl]-1H-benzimidazole-1-yl]octyl]-L-proline]
4.2 | CCCCCCC(C(=O)N1CC(O)C[C@H]1C(=O)O)n1cnc2cc(-c3ccccc3-c3nn[nH]n3)ccc21 (stereo partly drawn) [Example 13, 1-[1-oxo-2-[5-[2-(2H-tetrazol-5-yl)phenyl]-1H-benzimidazole-1-yl]octyl]-4-hydroxy-L-proline]
1080 | CCCCCCC(c1nccn1C)n1cnc2cc(-c3ccccc3-c3nnn[nH]3)ccc21 (stereo not shown) [Example 14, 1-Methyl-2-[1-[5-2-(2H-Tetrazol-5-yl)phenyl-1H-benzimidazol-1-yl]heptyl]-1H-imidazole]
2260 | CCCCCCC(CC(=O)O)n1ccc2cc(-c3ccccc3-c3nn[nH]n3)ccc21 (stereo not shown) [Example 21, 3-[5-[2-(2H-Tetrazol-5-yl)phenyl]indol-1-yl]nonanoic Acid]
1720 | CCCCCC(C(=O)O)n1ccc2cc(-c3ccccc3-c3nn[nH]n3)ccc21 (stereo not shown) [Example 22, 2-[5-[2-(2H-Tetrazol-5-yl)phenyl]indol-1-yl]heptanoic Acid]
62 | CCCCCCC(c1nnn[nH]1)n1cnc2cc(-c3ccccc3-c3nnn[nH]3)ccc21 (stereo not shown) [Example 34]
81.4 | CCCCCCC(C(=O)N(C)CC(=O)O)n1cnc2cc(-c3ccccc3-c3nn[nH]n3)ccc21 (stereo not shown) [Example 37, 1-[1-Oxo-2-[5-[2-(2H-tetrazol-5-yl]phenyl]-1H-benzimidazol-1]octyl]-N-methylglycine]
250 | CCCCCCC(C(=O)N1CC2(C[C@H]1C(=O)O)OCCO2)n1cnc2cc(-c3ccccc3-c3nn[nH]n3)ccc21 (stereo partly shown) [Example 40]
100 | CCCCCCC(C(=O)N[C@@H](CC(=O)O)C(=O)O)n1cnc2cc(-c3ccccc3-c3nn[nH]n3)ccc21 (stereo partly drawn) [Example 41, N-[1-Oxo-2-[5-[2-(2H-tetrazol-5-yl]phenyl]-1H-benzimidazol-1-yl]octyl]-L-aspartic Acid]
265 | CCCCCCC(C(=O)N[C@@H](CO)C(=O)O)n1cnc2cc(-c3ccccc3-c3nn[nH]n3)ccc21 (stereo partly drawn) [Example 42, N-[1-oxo-2-[5-[2-(2H-tetrazol-5-yl]phenyl]-1H-benzimidazol-1-yl]octyl]-L-serine]
69 | CCCCCCC(C(=O)N1CCC1C(=O)O)n1cnc2cc(-c3ccccc3-c3nn[nH]n3)ccc21 (stereo not shown) [Example 43]
199 | CCCCCCC(C(=O)N1CCC(C(=O)O)C1)n1cnc2cc(-c3ccccc3-c3nn[nH]n3)ccc21 (stereo not shown) [Example 44]

target: T1, rabbit aorta (Oryctolagus cuniculus, UniProt P34976); test: Rabbit Aorta Test System: antagonism of angiotensin II-induced contraction of thoracic aorta rings; assay type: cell-based, New Zealand white rabbit; conditions: pA2 = -log KB; AII concentration response curve 10^-10 to 10^-7 M, 30 minutes incubation, 37° C.
T1 sequence (P34976 1-359): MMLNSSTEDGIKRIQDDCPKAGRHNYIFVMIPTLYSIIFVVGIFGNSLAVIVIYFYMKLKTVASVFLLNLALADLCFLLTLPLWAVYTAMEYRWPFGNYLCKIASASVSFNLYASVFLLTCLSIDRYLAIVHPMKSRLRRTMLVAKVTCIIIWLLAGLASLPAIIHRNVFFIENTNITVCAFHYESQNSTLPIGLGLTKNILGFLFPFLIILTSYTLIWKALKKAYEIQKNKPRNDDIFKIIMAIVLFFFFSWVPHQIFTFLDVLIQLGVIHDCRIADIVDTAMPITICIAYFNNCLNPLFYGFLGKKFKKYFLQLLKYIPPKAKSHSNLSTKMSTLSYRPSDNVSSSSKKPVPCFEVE

Rabbit Aorta (pA2) | Compound
5.4 | 1-[5(and 6)-[2-(2H-Tetrazol-5-yl)phenyl]-2-pentyl-1H-benzimidazol-1-yl]acetic acid [Example 61]
6.5 | 2-[1-Hexyl-5-[2-(2H-tetrazol-5-yl)phenyl]-1H-benzimidazol-2-yl]propionic Acid [Example 30]
7.2 | CCCCCC#CC(C(=O)O)n1cnc2cc(-c3ccccc3-c3nn[nH]n3)ccc21 (stereo not shown) [Example 16]
6.5 | CCCC/C=C/C(C(=O)O)n1ccc2cc(-c3ccccc3-c3nn[nH]n3)ccc21 (stereo not drawn) [Example 25A, 2-[5-[2-(2H-Tetrazol-5-yl)phenyl]indol-1-yl]-3-trans-octenoic acid]
7.3 | CCCC/C=C\C(C(=O)O)n1ccc2cc(-c3ccccc3-c3nn[nH]n3)ccc21 (stereo not drawn) [Example 25B, 2-[5-[2-(2H-tetrazol-5-yl)phenyl]indol-1-yl]-3-cis-octenoic acid]

Compound | Rabbit Aorta (pA2)
4-Butoxy-2-[5(and 6)-[2-(2H-tetrazol-5-yl)phenyl]-1H-benzimidazol-1-yl]-butanoic acid [Example 11] | 6.7
